Measurements from patent publication US20260174777A1, “METHODS OF TREATMENT” (Arena Pharmaceuticals, Inc., priority 2022, published 2026).
“Also recorded” adds a separate entry of the source. Where two headings read alike, the source gives them in different places.

Columns and labels:
prolactin [1] = experiment: single ascending dose study with healthy subjects: prolactin pharmacodynamics; format: in vivo, human; settings: single doses
[2] = single ascending dose study with healthy subjects: safety and tolerability; format: in vivo, human; settings: single doses 1 to 24 mg
prolactin [3] = experiment: multiple ascending dose study with healthy subjects: prolactin pharmacodynamics; format: in vivo, human; settings: multiple doses TID
Description: Prolactin serum concentrations were summarized by timepoint, dose and part. Absolute and percent change from baseline in prolactin value was calculated, with predose value on Day 1 considered as the baseline value. Observed prolactin data, absolute and percent change from baseline versus time were plotted.

[4] = multiple ascending dose study with healthy subjects: safety and tolerability; format: in vivo, human
[5] = for CL/F Mean / Cav Mean / Ctrough Mean: healthy subjects
clinical [6] = settings: human; for CL renal: plasma and urine; for half-life / Cmax / Tmax / AUC(0-inf) / Vd/F: plasma
clinical [7] = settings: human, plasma, oral
[8] = single ascending dose study with healthy subjects: pharmacokinetics
[9] = system: drop seizures in patients with Lennox-Gastaut Syndrome; settings: Phase 3 studies, versus placebo; cited from earlier work
[10] = multiple doses TID, healthy subjects
[11] = 3 mg TID, no titration, 14 days
[12] = 6 mg TID, no titration, 14 days
[13] = 12 mg TID, no titration, 14 days
[14] = 18 mg TID, no titration, 14 days

## C[C@H]1CN2CCNCc3ccc(C(=O)NCC(F)F)c1c32 [Compound 1, (R)-N-(2,2-difluoroethyl)-7-methyl-1,2,3,4,6,7-hexahydro-[1,4]diazepino[6,7,1-hi]indole-8-carboxamide]
Prolactin [1]
  prolactin levels by 24-hour postdose: returned to baseline for only the 6 mg dose level
  prolactin mean % CFB at 2 hours: increased in a dose-dependent manner, with a greater than dose proportional increase between 6 mg and 12 mg doses
Prolactin [1]; within 2 h
  prolactin: increased within 2 h in a dose- and concentration-dependent manner
[2]
  most common treatment emergent adverse events: headache, postural dizziness, and nausea, which were mild to moderate in severity
Prolactin [3]
  mean percent change from baseline prolactin level at 2 hours: increased with increasing doses from 3 mg to 12 mg and plateaued thereafter
  prolactin: increased in a dose- and concentration-dependent manner, with greater increase seen after first dose
[4]; after stopping treatment with 24 mg TID
  serious adverse event: One
[4]; forty-three subjects enrolled
  subjects discontinued due to adverse events: Three
[4]; [10]
  most common TEAEs: headache, somnolence, dizziness, dizziness postural, micturition urgency & orthostatic hypotension
  severity of majority of treatment emergent adverse events (TEAEs): mild to moderate
[4]; occurring in 3 subjects, all after cessation of dosing
  severe TEAEs: Five
[5]; [11]
  CL/F Mean: 125 L/h
  Cav Mean: 3.39 ng/mL
  Ctrough Mean: 1.94 ng/mL
[5]; [12]
  CL/F Mean: 66.6 L/h
  Cav Mean: 12.5 ng/mL
  Ctrough Mean: 7.02 ng/mL
[5]; [13]
  CL/F Mean: 63.1 L/h
  Cav Mean: 26.6 ng/mL
  Ctrough Mean: 15.8 ng/mL
[5]; [14]
  CL/F Mean: 45.9 L/h
  Cav Mean: 60.0 ng/mL
  Ctrough Mean: 37.7 ng/mL
[5]; 24 mg TID, 3-day titration
  CL/F Mean: 62.9 L/h
  Cav Mean: 60.1 ng/mL
  Ctrough Mean: 34.0 ng/mL
[5]; 12/24 mg TID titration regimen
  dose eliminated by the renal route in 48 hours: 12.3%
[5]; TID regimen, listed as Study Drug
  accumulation upon multiple dosing: Significant accumulation; also recorded: dose dependent accumulation
[5]; doses up to 18 mg TID, in most cases
  steady-state achieved by: ≤ 10 days
[5]; first dose and multiple oral doses, powder-in-capsule formulation
  absorption into systemic circulation: rapidly absorbed
[5]; non-titration part
  dosing time after which most subjects were at steady state: 10 days
Clinical [6]; oral, 1 mg
  CL renal: 50 mL/min
  Cmax: 1.08 ng/mL
  Tmax: 1.54 h
Clinical [6]; oral, 3 mg
  CL renal: 60.3 mL/min
  AUC(0-inf): 40.9 ng·h/mL
  Cmax: 6.36 ng/mL
  Tmax: 1.02 h
  Vd/F: 608 L
  half-life: 4.94 h
Clinical [6]; oral, 6 mg
  CL renal: 57 mL/min
  AUC(0-inf): 58.7 ng·h/mL
  Cmax: 9.52 ng/mL
  Tmax: 1.5 h
  Vd/F: 1230 L
  half-life: 6.66 h
Clinical [6]; oral, 12 mg
  CL renal: 70.8 mL/min
  AUC(0-inf): 101 ng·h/mL
  Cmax: 17 ng/mL
  Tmax: 1.25 h
  Vd/F: 929 L
  half-life: 4.67 h
Clinical [6]; oral, 24 mg
  CL renal: 62.5 mL/min
  AUC(0-inf): 288 ng·h/mL
  Cmax: 59.3 ng/mL
  Tmax: 1.07 h
  Vd/F: 697 L
  half-life: 5.09 h
Clinical [6]; oral
  half-life: 5 to 7 h
Clinical [6]; po
  Tmax: 1 to 1.5 h
Clinical [7]
  Tmax: 1 to 2 h
Clinical [7]; 3 mg TID
  AUC: 27.1 ng·h/mL
  AUC(0-inf): 46.1 ng·h/mL
  AUC(0-t): 38.6 ng·h/mL
  Cmax: 6.61 ng/mL
  Tmax: 1.01 h
  half-life: 5.56 h
Clinical [7]; 6 mg TID
  AUC: 99.8 ng·h/mL
  AUC(0-inf): 152 ng·h/mL
  AUC(0-t): 150 ng·h/mL
  Cmax: 20.7 ng/mL
  Tmax: 1.78 h
  half-life: 4.81 h
Clinical [7]; 12 mg TID
  AUC: 213 ng·h/mL
  AUC(0-inf): 330 ng·h/mL
  AUC(0-t): 327 ng·h/mL
  Cmax: 44.9 ng/mL
  Tmax: 1.27 h
  half-life: 5.96 h
Clinical [7]; 18 mg TID
  AUC: 480 ng·h/mL
  AUC(0-inf): 775 ng·h/mL
  AUC(0-t): 773 ng·h/mL
  Cmax: 98.6 ng/mL
  Tmax: 2 h
  half-life: 5.64 h
Clinical [7]; 24 mg TID
  AUC: 480 ng·h/mL
  AUC(0-inf): 741 ng·h/mL
  AUC(0-t): 737 ng·h/mL
  Cmax: 107 ng/mL
  Tmax: 1.04 h
  half-life: 6.5 h
[8]; single doses 1 to 24 mg
  dose proportionality of peak and total exposure: slightly greater than dose proportional especially at higher doses
[8]; single oral dose, powder in capsule formulation
  absorption into the systemic circulation: rapidly absorbed

## CCNC(C)Cc1cccc(C(F)(F)F)c1 (stereo not shown) [fenfluramine]
[9]
  reduction of the frequency of drop seizures: superior to placebo
